pIC50: −log10 of the molar value. Active and inactive are the calls of the source. No cut-off for these calls is given here.

This note sets out measurements from ChEMBL document CHEMBL4400519, “Indazolylketones as new multitarget cannabinoid drugs” (Eur J Med Chem, 2019).

The subject of data set [1] is SH-SY5Y. Put plainly: Neuroprotective activity against amyloid beta-induced neurodegeneration in human SH-SY5Y cells at 10 uM preincubated for 1 hr followed by amyloid beta addition and measured after 24 hrs by MTT assay. It counts as functional, cell-based.
Data set [2] can be described thus: Antiproliferative activity against normal human derived lymphoblast cells at 5 uM after 72 hrs by MTT assay.
Data set [3] addresses Beta-secretase 1 (Homo sapiens) (UniProt P56817). The data set is described as follows: Inhibition of human BACE1 at 10 uM incubated for 60 mins using rhodamine-EVNLDAEFK-quencher substrate by FRET assay.
Data set [4] addresses T1, Cannabinoid receptor (Mus musculus) (UniProt P47746+P47936). The data set is described as follows: Agonist activity at cannabinoid receptor in ICR mouse vas deferens assessed as inhibition of electrically induced contractions at 9 x 10^-7 M after 10 mins in presence of CB1 antagonist AM251 and CB2 antagonist AM630 relative to control. It counts as protein assay.
In data set [5] the target is T2, Acetylcholinesterase (Homo sapiens, UniProt P22303). The data set is described as follows: Inhibition of human erythrocyte AChE using acetylthiocholine as substrate by Ellman's assay.
T2 sequence (P22303 whole entry): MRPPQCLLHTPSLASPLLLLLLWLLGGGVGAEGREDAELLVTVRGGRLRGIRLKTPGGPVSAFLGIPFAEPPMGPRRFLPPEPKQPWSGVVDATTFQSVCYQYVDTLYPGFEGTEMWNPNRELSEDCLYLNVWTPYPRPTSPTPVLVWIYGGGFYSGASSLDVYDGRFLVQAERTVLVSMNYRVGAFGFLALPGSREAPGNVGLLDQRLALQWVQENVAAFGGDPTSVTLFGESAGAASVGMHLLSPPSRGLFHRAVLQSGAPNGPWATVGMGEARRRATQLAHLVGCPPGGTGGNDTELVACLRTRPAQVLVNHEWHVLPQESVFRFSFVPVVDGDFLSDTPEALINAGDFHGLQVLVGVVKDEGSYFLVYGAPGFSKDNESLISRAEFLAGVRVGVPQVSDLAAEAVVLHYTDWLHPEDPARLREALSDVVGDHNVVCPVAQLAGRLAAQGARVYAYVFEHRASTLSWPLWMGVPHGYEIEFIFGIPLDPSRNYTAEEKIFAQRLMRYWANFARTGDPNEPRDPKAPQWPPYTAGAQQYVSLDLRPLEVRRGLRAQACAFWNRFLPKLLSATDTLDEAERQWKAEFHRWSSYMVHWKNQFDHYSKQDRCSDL
For data set [6], the target named is T1, Cannabinoid receptor (Mus musculus). Put plainly: Agonist activity at cannabinoid receptor in ICR mouse vas deferens assessed as inhibition of electrically induced contractions at 3 x 10^-7 M after 10 mins relative to control. It counts as protein assay.
Data set [7] shares this target. Put plainly: Agonist activity at cannabinoid receptor in ICR mouse vas deferens assessed as inhibition of electrically induced contractions at 1.82 x 10^-5 M after 10 mins in presence of CB1 antagonist AM251 and CB2 antagonist AM630 relative to control. It counts as protein assay.
The species named for data set [8] is Homo sapiens. The data set is described as follows: Antiproliferative activity against Alzheimer's patient derived lymphoblast cells at 5 uM in presence of CB2 antagonist AM630 after 72 hrs by MTT assay. It counts as functional.
In data set [9] the target is T3, Cholinesterase (Homo sapiens, UniProt P06276). Put plainly: Non-competitive inhibition of human serum BChE using butyrylthiocholine as substrate by Lineweaver-Burk plot analysis.
T3 sequence (P06276 whole entry): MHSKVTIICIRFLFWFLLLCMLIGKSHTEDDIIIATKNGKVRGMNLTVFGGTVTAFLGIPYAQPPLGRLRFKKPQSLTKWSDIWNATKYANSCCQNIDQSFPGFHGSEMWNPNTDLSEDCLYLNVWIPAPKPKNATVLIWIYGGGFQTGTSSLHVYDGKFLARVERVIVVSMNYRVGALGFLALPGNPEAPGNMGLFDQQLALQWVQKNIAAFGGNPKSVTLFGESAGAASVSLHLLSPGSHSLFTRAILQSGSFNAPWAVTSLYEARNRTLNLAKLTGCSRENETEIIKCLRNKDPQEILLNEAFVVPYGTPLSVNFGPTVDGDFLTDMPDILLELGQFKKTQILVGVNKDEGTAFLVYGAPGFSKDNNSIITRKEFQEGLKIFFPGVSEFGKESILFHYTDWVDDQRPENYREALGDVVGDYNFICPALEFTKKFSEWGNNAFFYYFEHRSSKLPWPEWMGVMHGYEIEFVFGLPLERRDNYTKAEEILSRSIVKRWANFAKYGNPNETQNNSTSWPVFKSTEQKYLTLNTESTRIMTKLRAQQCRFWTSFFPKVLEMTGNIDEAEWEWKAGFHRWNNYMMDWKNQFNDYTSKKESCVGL
Data set [10] addresses T1, Cannabinoid receptor (Mus musculus). The data set is described as follows: Agonist activity at cannabinoid receptor in ICR mouse vas deferens assessed as inhibition of electrically induced contractions at 8.1 x 10^-6 M after 10 mins in presence of CB1 antagonist AM251 and CB2 antagonist AM630 relative to control. It counts as protein assay.
Data set [11] is filed under the species Homo sapiens. The data set is described as follows: Antiproliferative activity against Alzheimer's patient derived lymphoblast cells at 5 uM after 72 hrs by MTT assay. It counts as functional.
The target of data set [12] is T1, Cannabinoid receptor (Mus musculus). The data set is described as follows: Agonist activity at cannabinoid receptor in ICR mouse vas deferens assessed as inhibition of electrically induced contractions at 1.82 x 10^-5 M after 10 mins relative to control. It counts as protein assay.
The target of data set [13] is T2, Acetylcholinesterase. Put plainly: Inhibition of human erythrocyte AChE at 10 uM using acetylthiocholine as substrate by Ellman's assay.
Data set [14] concerns the target T1, Cannabinoid receptor (Mus musculus). Put plainly: Agonist activity at cannabinoid receptor in ICR mouse vas deferens assessed as inhibition of electrically induced contractions at 8.1 x 10^-6 M after 10 mins relative to control. It counts as protein assay.
For data set [15] the target is unchanged. The data set is described as follows: Agonist activity at cannabinoid receptor in ICR mouse vas deferens assessed as inhibition of electrically induced contractions at 2.7 x 10^-6 M after 10 mins in presence of CB1 antagonist AM251 and CB2 antagonist AM630 relative to control. It counts as protein assay.
Data set [16] has the same target. The data set is described as follows: Agonist activity at cannabinoid receptor in ICR mouse vas deferens assessed as inhibition of electrically induced contractions at 10^-7 M after 10 mins in presence of CB1 antagonist AM251 and CB2 antagonist AM630 relative to control. It counts as protein assay.
The target is the same in data set [17]. The data set is described as follows: Agonist activity at cannabinoid receptor in ICR mouse vas deferens assessed as inhibition of electrically induced contractions at 10^-7 M after 10 mins relative to control. It counts as protein assay.
Data set [18] has the same target. Put plainly: Agonist activity at cannabinoid receptor in ICR mouse vas deferens assessed as inhibition of electrically induced contractions at 2.7 x 10^-6 M after 10 mins relative to control. It counts as protein assay.
For data set [19] the target is unchanged. The data set is described as follows: Agonist activity at cannabinoid receptor in ICR mouse vas deferens assessed as inhibition of electrically induced contractions at 3 x 10^-7 M after 10 mins in presence of CB1 antagonist AM251 and CB2 antagonist AM630 relative to control. It counts as protein assay.
Data set [20] has the same target. The data set is described as follows: Agonist activity at cannabinoid receptor in ICR mouse vas deferens assessed as inhibition of electrically induced contractions at 9 x 10^-7 M after 10 mins relative to control. It counts as protein assay.
Data set [21] relates to SH-SY5Y. The data set is described as follows: Neuroprotective activity against amyloid beta-induced neurodegeneration in human SH-SY5Y cells at 20 uM preincubated for 1 hr followed by amyloid beta addition and measured after 24 hrs by MTT assay. It counts as functional, cell-based.
In data set [22] the target is T1, Cannabinoid receptor (Mus musculus). The data set is described as follows: Agonist activity at cannabinoid receptor in ICR mouse vas deferens assessed as inhibition of electrically induced contractions at 10^-7 M after 10 mins in presence of CB2 antagonist AM630 relative to control. It counts as protein assay.
Data set [23] is described as follows: Antioxidant activity assessed as trolox equivalent of APPH-induced radical scavenging activity by ORAC-FL assay. It counts as functional.
Data set [24] concerns the target T1, Cannabinoid receptor (Mus musculus). Put plainly: Agonist activity at cannabinoid receptor in ICR mouse vas deferens assessed as inhibition of electrically induced contractions at 8.1 x 10^-6 M after 10 mins in presence of CB1 antagonist AM251 relative to control. It counts as protein assay.
For data set [25], the system named is SH-SY5Y. Put plainly: Neuroprotective activity against amyloid beta-induced neurodegeneration in human SH-SY5Y cells at 20 uM preincubated for 1 hr followed by amyloid beta addition and measured after 24 hrs in presence of CB2 antagonist AM630 by MTT assay. It counts as functional, cell-based.
Data set [26] concerns the target T1, Cannabinoid receptor (Mus musculus). Put plainly: Agonist activity at cannabinoid receptor in ICR mouse vas deferens assessed as inhibition of electrically induced contractions at 2.7 x 10^-6 M after 10 mins in presence of CB1 antagonist AM251 relative to control. It counts as protein assay.
The target in data set [27] is T3, Cholinesterase. The data set is described as follows: Inhibition of human serum BChE at 10 uM using butyrylthiocholine as substrate by Ellman's assay.
Data set [28] addresses T1, Cannabinoid receptor (Mus musculus). The data set is described as follows: Agonist activity at cannabinoid receptor in ICR mouse vas deferens assessed as inhibition of electrically induced contractions at 1.82 x 10^-5 M after 10 mins in presence of CB2 antagonist AM630 relative to control. It counts as protein assay.
Data set [29] has the same target. Put plainly: Agonist activity at cannabinoid receptor in ICR mouse vas deferens assessed as inhibition of electrically induced contractions at 1.82 x 10^-5 M after 10 mins in presence of CB1 antagonist AM251 relative to control. It counts as protein assay.
Data set [30] has the same target. The data set is described as follows: Agonist activity at cannabinoid receptor in ICR mouse vas deferens assessed as inhibition of electrically induced contractions at 10^-7 M after 10 mins in presence of CB1 antagonist AM251 relative to control. It counts as protein assay.
Data set [31] shares this target. The data set is described as follows: Agonist activity at cannabinoid receptor in ICR mouse vas deferens assessed as inhibition of electrically induced contractions at 8.1 x 10^-6 M after 10 mins in presence of CB2 antagonist AM630 relative to control. It counts as protein assay.
The target is the same in data set [32]. The data set is described as follows: Agonist activity at cannabinoid receptor in ICR mouse vas deferens assessed as inhibition of electrically induced contractions at 2.7 x 10^-6 M after 10 mins in presence of CB2 antagonist AM630 relative to control. It counts as protein assay.
For data set [33] the target is unchanged. The data set is described as follows: Agonist activity at cannabinoid receptor in ICR mouse vas deferens assessed as inhibition of electrically induced contractions at 9 x 10^-7 M after 10 mins in presence of CB2 antagonist AM630 relative to control. It counts as protein assay.
In data set [34] the target is T3, Cholinesterase. Put plainly: Inhibition of human serum BChE using butyrylthiocholine as substrate by Ellman's assay.
The target of data set [35] is T1, Cannabinoid receptor (Mus musculus). Put plainly: Agonist activity at cannabinoid receptor in ICR mouse vas deferens assessed as inhibition of electrically induced contractions at 3 x 10^-7 M after 10 mins in presence of CB2 antagonist AM630 relative to control. It counts as protein assay.
Data set [36] has the same target. Put plainly: Agonist activity at cannabinoid receptor in ICR mouse vas deferens assessed as inhibition of electrically induced contractions at 3 x 10^-7 M after 10 mins in presence of CB1 antagonist AM251 relative to control. It counts as protein assay.
Data set [37] shares this target. Put plainly: Agonist activity at cannabinoid receptor in ICR mouse vas deferens assessed as inhibition of electrically induced contractions at 9 x 10^-7 M after 10 mins in presence of CB1 antagonist AM251 relative to control. It counts as protein assay.
In data set [38] the test system is SH-SY5Y. Put plainly: Neuroprotective activity against amyloid beta-induced neurodegeneration in human SH-SY5Y cells at 10 uM preincubated for 1 hr followed by amyloid beta addition and measured after 24 hrs CB2 antagonist AM630 by MTT assay. It counts as functional, cell-based.

Chain of Beta-secretase 1 (Homo sapiens) (P56817 whole entry): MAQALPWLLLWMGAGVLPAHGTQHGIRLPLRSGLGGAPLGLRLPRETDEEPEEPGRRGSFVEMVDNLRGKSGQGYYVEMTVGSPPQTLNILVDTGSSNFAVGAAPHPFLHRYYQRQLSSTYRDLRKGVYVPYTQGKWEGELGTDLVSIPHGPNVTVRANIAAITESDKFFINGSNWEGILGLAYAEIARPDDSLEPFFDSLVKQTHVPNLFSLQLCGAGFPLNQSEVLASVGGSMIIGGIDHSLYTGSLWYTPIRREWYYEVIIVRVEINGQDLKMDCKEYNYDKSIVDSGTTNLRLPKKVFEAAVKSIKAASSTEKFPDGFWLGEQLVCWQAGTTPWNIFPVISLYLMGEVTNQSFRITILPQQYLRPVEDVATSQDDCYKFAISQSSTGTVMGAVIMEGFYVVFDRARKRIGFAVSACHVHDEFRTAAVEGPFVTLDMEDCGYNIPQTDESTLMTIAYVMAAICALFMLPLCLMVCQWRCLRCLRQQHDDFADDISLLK
T1 sequence (P47746 whole entry, looked up): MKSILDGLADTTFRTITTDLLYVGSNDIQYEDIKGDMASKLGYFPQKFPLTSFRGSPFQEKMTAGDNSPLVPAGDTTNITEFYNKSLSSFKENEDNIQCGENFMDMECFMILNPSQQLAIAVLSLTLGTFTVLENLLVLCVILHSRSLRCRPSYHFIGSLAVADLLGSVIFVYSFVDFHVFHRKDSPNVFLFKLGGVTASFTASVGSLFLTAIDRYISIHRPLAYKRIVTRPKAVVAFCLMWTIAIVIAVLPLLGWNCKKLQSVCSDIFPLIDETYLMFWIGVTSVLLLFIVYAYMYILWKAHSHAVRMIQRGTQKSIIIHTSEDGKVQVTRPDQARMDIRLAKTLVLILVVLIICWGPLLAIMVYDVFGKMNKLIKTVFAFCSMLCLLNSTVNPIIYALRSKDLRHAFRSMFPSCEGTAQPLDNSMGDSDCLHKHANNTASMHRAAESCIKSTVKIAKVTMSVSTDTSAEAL
T1 sequence (P47936 whole entry, looked up): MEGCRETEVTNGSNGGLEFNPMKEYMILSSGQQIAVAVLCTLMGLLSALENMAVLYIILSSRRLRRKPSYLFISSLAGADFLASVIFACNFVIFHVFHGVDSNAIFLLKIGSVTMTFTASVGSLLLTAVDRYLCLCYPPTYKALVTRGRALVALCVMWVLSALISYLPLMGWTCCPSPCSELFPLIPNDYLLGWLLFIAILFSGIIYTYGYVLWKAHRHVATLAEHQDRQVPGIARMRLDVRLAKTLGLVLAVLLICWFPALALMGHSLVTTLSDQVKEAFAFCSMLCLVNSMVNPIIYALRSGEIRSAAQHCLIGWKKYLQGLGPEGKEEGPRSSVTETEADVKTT

On to `COc1ccc(COc2nn(CCN(C(C)C)C(C)C)c3ccccc23)cc1`, for which the outcome with SH-SY5Y [1], in the data set listed under Homo sapiens [11] and with SH-SY5Y [21] was Active. The Activity entry in data set [2] is listed as “Non-Toxic”. The inhibition in [3] is 9%; in [4] it was 12%; in data set [6] it was 8.5%; in [7], 84%; in data set [10], 60%; in [12], 86.4%. For the same compound, the inhibition at Acetylcholinesterase [13] was found to be 24%; in data set [14], 74.7%; in [15] it was 20.3%; in data set [16], 1.3%; in data set [17] it was 7.5%; in data set [18] it was 43.1%. The inhibition came out at 8.2% in data set [19] and 18.6% in data set [20]. The pIC50 on Acetylcholinesterase [5] is < 5.00. Besides, the result in the data set listed under Homo sapiens [8] was inactive. Besides, the inhibition result on Cholinesterase [9] was “Active”.
For `COc1ccc(CC(=O)n2nc(OCCCN3CCCCC3)c3ccccc32)cc1`, the inhibition in data set [22] was -9.2%; in data set [24] it was 61.9%; in [3] it was 60%; in data set [26], -1.6%; against Cholinesterase [27], 42%; in data set [28], 94.3%. The inhibition in [6] was -0.3%; in data set [12], 96%; against Acetylcholinesterase [13] it was 43%; in data set [14] it was 88.5%; in data set [29] it was 89.7%; in data set [17] it was -2.4%. Besides, the inhibition in [30] is -9.4%; in data set [31], 68.5%; in data set [18] it was 42.5%; in [32], 14.7%; in data set [33], -1.4%; in [20] it was 16.9%. In addition, the inhibition in data set [35] is -9.4%. In addition, the outcome (in [23]; in the data set on SH-SY5Y [25]; in the data set listed under Homo sapiens [8]) was inactive. The Activity result in data set [2] is “Non-Toxic”. Also, the negative logarithm of the IC50 (pIC50) against Acetylcholinesterase [5] and on Cholinesterase [34] was < 5.00 each time. The result in the data set filed under Homo sapiens [11] and with SH-SY5Y [21] was Active.
Take `Cc1cc(C)c(C(=O)n2nc(OCCN3CCCCC3)c3ccccc32)c(C)c1`: the outcome (in [23]; in the data set filed under Homo sapiens [8]; in the data set on SH-SY5Y [38]) was inactive. Moreover, the outcome in the data set on SH-SY5Y [1] and in the data set filed under Homo sapiens [11] was Active. The Activity result in data set [2] is on record as “Non-Toxic”. Moreover, the inhibition came to 19.8% in data set [24]; 12% in data set [3]; 8.7% in [26]; 1.3% in data set [28]; 3.6% in data set [6]; 1.4% in [36]. Also, the inhibition was 7.6% in [37]; 56.8% in data set [12]; 30.7% in data set [14]; 40.7% in [29]; 2.6% in [17]; -0.4% in [30]. For the same compound, the inhibition in [31] is -4.7%; in data set [18], 14%; in data set [20], 6.5%. Also, the pIC50 at Acetylcholinesterase [5] was 4.94; against Cholinesterase [34], 6.54.
